From PubChem BioAssay (NCI)
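Compound exposure: 48 hours, 5 concentrations, 96-well plates. Abbreviation: GI50, concentration required for 50% inhibition of growth. At the TGI there is no net growth.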

Legend:
Experiment in all cases: inhibition of tumour cell growth, NCI panel, 48 h
[1] = system: UO-31 renal
[2] = system: OVCAR-8 ovarian
[3] = system: ACHN renal
[4] = system: HCT-116 colon
[5] = system: SNB-19 CNS
[6] = system: NCI/ADR-RES ovarian
[7] = system: MCF7 breast
[8] = system: CCRF-CEM leukemia
[9] = system: RXF 393 renal
[10] = system: U251 CNS

Row | Structure (SMILES) | TGI [1] [µM] | TGI [2] [µM] | TGI [3] [µM] | TGI [4] [µM] | TGI [5] [µM] | TGI [6] [µM] | TGI [7] [µM] | TGI [8] [µM] | TGI [9] [µM] | TGI [10] [µM] | GI50 [1] [µM] | GI50 [2] [µM] | GI50 [3] [µM] | GI50 [4] [µM] | GI50 [5] [µM] | GI50 [6] [µM] | GI50 [7] [µM] | GI50 [8] [µM] | GI50 [10] [µM] | GI50 [9] [µM]
1 | O=C(O)C1C(C(=O)Nc2ccc3c(c2)Cc2ccccc2-3)C2(Cl)C(Cl)=C(Cl)C1(Cl)C2(Cl)Cl (configuration not stated) | 55.5 | 43 | > 100 | 38.1 | > 100 | > 100 | 62.2 | 38 | 43.1 | 29.7 | – | – | – | – | – | – | – | – | – | –
2 | CC(=O)OC1CC(n2cc(F)c(=O)[nH]c2=O)OC1CO (configuration not stated) | > 92.6 | > 100 | > 77.8 | > 100 | > 100 | > 100 | > 28.3 | > 100 | > 100 | > 100 | – | – | – | – | – | – | – | – | – | –
3 | COc1ccc(C(=O)c2ccc(OC)c(OC)c2OC)cc1 | > 100 | > 100 | > 100 | > 100 | > 100 | 7.8 | > 100 | > 100 | – | > 100 | 4.65 | 3 | 6.56 | 2.19 | 4.87 | 0.693 | 0.697 | 1.46 | 0.725 | –
4 | C/C(=N\NC(=O)c1ccncc1)c1ccc2ccccc2c1O | 38.5 | 35.3 | > 100 | 10.5 | > 100 | > 54.3 | 14 | > 100 | > 79.6 | > 62.2 | – | – | – | – | – | – | – | – | – | –
5 | CN1CCCNc2c(c(=O)c2=O)NCCCN(C)CCCNc2c(c(=O)c2=O)NCCCN(C)CCCNc2c(c(=O)c2=O)NCCCN(C)CCCNc2c(c(=O)c2=O)NCCCN(C)CCCNc2c(c(=O)c2=O)NCCCN(C)CCCNc2c(c(=O)c2=O)NCCCN(C)CCCNc2c(c(=O)c2=O)NCCC1 | 9.19 | 46.8 | 6.87 | 17.4 | 33.9 | 26.7 | 19.5 | 49.3 | 12.7 | > 50 | 2.01 | 2.48 | 1.66 | 5.81 | 2.59 | 5.96 | 6.52 | 2.24 | 2.23 | 2.54
6 | NS(=O)(=O)c1cc2c(cc1Cl)NC(Cc1ccccc1)NS2(=O)=O (configuration not stated) | > 100 | > 100 | > 100 | > 100 | > 100 | > 100 | > 100 | – | > 100 | > 100 | – | – | – | – | – | – | – | – | – | –
7 | COc1cccc(C2C(C#N)=C(N)Oc3cc(N)ccc32)c1 (configuration not stated) | > 100 | > 60.9 | > 100 | > 72.2 | > 100 | 4.38 | > 100 | – | – | – | 0.858 | 0.649 | 0.762 | 0.383 | – | 0.346 | 0.314 | 0.32 | 0.369 | –
8 | C1CCN(CCC2CCCCN2)CC1 (configuration not stated) | – | > 100 | > 100 | > 100 | > 100 | > 100 | > 100 | > 100 | > 100 | > 100 | – | – | – | – | – | – | – | – | – | –
9 | O=C(OCc1ccccc1)N1CCN(/[N+]([O-])=N/Oc2ccc([N+](=O)[O-])cc2[N+](=O)[O-])CC1 | > 100 | > 100 | 26.6 | 7.55 | 35.8 | > 100 | 8.87 | – | 56.5 | 27.1 | 3.82 | 31.5 | 7.12 | 2.15 | 13.6 | 5.25 | 2.84 | – | 4.85 | 29.2
10 | NC(N)=NS(=O)(=O)c1ccc(NCc2c3ccccc3nc3ccccc23)cc1 | 87.4 | 53.8 | 30.5 | 56.2 | 20.7 | – | 17.5 | 9.03 | 42.1 | 10.9 | – | – | – | – | – | – | – | – | – | –
11 | COc1cc(C(=O)/C=C/c2cc(C(=O)c3cc(OC)c(OC)c(OC)c3)ccc2OC)ccc1N | 2.12 | 6.12 | 4.49 | 2.03 | – | 2.51 | 2.28 | > 100 | – | 2.22 | 0.762 | 0.846 | 1.08 | 0.661 | – | 0.388 | 0.322 | 0.35 | 1.02 | –
12 | CC(C)CCOc1ccc(-c2n[nH]c(C(F)(F)F)c2-c2cncc(C#N)c2)c(O)c1 | 7.61 | 19.1 | 9.02 | 10.5 | 31.5 | 7.35 | > 100 | – | 6.15 | 8.4 | 1.98 | 2.78 | 2.54 | 2.61 | 2.98 | 2.2 | 2.23 | – | 2 | 1.96
